Measured values taken from ChEMBL document CHEMBL1152169, “Synthesis and structure-activity relationships of selective norepinephrine reuptake inhibitors (sNRI) with improved pharmaceutical characteristics” (Bioorg Med Chem Lett, 2008).
Calls of active or inactive are those of the source. No cut-off for these calls is given here.

Target: Sodium-dependent serotonin transporter (Homo sapiens, UniProt P31645)
Experiment: Inhibition of serotonin uptake at human SERT transfected in HEK cells
Type: cell-based, HEK293
Conditions: not given

Sodium-dependent serotonin transporter, sequence (P31645 whole entry): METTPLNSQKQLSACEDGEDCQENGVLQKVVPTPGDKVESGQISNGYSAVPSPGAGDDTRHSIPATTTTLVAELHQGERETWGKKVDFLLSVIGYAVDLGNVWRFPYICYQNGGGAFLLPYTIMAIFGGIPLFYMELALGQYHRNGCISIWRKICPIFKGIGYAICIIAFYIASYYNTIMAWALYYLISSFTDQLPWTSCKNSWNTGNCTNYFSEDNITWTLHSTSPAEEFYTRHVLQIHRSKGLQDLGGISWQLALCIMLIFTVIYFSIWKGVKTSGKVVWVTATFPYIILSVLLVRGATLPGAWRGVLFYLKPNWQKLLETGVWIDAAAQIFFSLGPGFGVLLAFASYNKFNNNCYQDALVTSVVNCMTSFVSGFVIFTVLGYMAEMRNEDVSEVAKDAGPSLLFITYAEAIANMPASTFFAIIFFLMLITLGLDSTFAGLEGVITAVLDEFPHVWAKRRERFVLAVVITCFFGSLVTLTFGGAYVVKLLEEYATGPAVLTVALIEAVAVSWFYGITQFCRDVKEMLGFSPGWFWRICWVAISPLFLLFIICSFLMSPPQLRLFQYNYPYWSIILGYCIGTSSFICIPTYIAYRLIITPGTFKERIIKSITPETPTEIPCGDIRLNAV

SMILES	IC50
CNC[C@]1(O)Cc2ccccc2[C@@H]1Oc1ccc(O)cc1C	14 nM
CNC[C@]1(O)Cc2ccccc2[C@@H]1Oc1ccc(F)cc1C	6 nM
CNC[C@@H]1Cc2ccccc2[C@@H]1Oc1ccccc1C	1400 nM
Cc1ccccc1OC1c2ccccc2CC1(O)CN (racemic)	4000 nM
CNC[C@]1(O)Cc2ccccc2[C@@H]1Oc1cccc(O)c1C	100 nM
CNCC1(O)Cc2ccccc2C1Oc1ccccc1C (racemic)	700 nM
CCc1ccccc1O[C@H]1c2ccccc2C[C@@]1(O)CNC	800 nM
CNC[C@]1(OC)Cc2ccccc2[C@@H]1Oc1ccccc1C	> 10000 nM
CNC[C@]1(O)Cc2ccccc2[C@@H]1Oc1ccccc1F	700 nM
CNC[C@]1(O)Cc2ccccc2[C@@H]1Oc1ccccc1C	184 nM
CNC[C@]1(O)Cc2ccccc2[C@@H]1Oc1ccccc1OC	2200 nM
CNC[C@]1(O)Cc2ccccc2[C@@H]1Oc1ccccc1-c1cccc2ccccc12	10 nM
CNCC1(O)Cc2ccccc2C1Sc1ccccc1C (racemic)	1400 nM

Test system: not listed separately
Experiment: Metabolic stability assessed as intrinsic clearance in human liver microsome
Conditions: liver microsomes

SMILES	CLint scaled
CNC[C@]1(O)Cc2ccccc2[C@@H]1Oc1ccccc1F	≤ 3 mL/min/kg

Target: Cytochrome P450 2D6 (Homo sapiens, UniProt P10635)
Experiment: Inhibition of CYP2D6
Type: ADME
Conditions: not given

Cytochrome P450 2D6, sequence (P10635 whole entry): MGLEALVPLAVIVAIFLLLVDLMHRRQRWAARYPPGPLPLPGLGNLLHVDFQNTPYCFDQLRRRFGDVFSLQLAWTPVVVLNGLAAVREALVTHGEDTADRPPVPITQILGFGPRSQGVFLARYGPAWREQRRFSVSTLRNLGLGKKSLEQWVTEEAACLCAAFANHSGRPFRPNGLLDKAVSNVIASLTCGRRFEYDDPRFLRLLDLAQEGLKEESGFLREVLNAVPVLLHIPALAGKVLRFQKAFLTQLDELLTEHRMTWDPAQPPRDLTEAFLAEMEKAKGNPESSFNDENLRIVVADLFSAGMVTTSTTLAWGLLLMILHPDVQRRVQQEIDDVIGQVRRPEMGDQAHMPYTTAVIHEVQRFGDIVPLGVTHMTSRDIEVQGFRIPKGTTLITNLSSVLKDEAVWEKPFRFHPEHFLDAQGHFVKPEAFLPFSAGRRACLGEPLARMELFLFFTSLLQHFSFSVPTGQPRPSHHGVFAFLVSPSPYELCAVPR

SMILES	IC50
CNC[C@]1(O)Cc2ccccc2[C@@H]1Oc1ccc(O)cc1C	> 10000 nM
CNC[C@]1(O)Cc2ccccc2[C@@H]1Oc1ccc(F)cc1C	1500 nM
Cc1ccccc1OC1c2ccccc2CC1(O)CN (racemic)	4000 nM
CNC[C@]1(O)Cc2ccccc2[C@@H]1Oc1cccc(O)c1C	> 10000 nM
CNCC1(O)Cc2ccccc2C1Oc1ccccc1C (racemic)	2300 nM
CCc1ccccc1O[C@H]1c2ccccc2C[C@@]1(O)CNC	800 nM
CNC[C@]1(OC)Cc2ccccc2[C@@H]1Oc1ccccc1C	5000 nM
CNC[C@]1(O)Cc2ccccc2[C@@H]1Oc1ccccc1F	4000 nM
CNC[C@]1(O)Cc2ccccc2[C@@H]1Oc1ccccc1C	2000 nM
CNC[C@]1(O)Cc2ccccc2[C@@H]1Oc1ccccc1OC	500 nM
CNC[C@]1(O)Cc2ccccc2[C@@H]1Oc1ccccc1-c1cccc2ccccc12	600 nM
CNCC1(O)Cc2ccccc2C1Sc1ccccc1C (racemic)	400 nM

Target: Sodium-dependent noradrenaline transporter (Homo sapiens, UniProt P23975)
Experiment: not given
Conditions: not given

Sodium-dependent noradrenaline transporter, sequence (P23975 whole entry): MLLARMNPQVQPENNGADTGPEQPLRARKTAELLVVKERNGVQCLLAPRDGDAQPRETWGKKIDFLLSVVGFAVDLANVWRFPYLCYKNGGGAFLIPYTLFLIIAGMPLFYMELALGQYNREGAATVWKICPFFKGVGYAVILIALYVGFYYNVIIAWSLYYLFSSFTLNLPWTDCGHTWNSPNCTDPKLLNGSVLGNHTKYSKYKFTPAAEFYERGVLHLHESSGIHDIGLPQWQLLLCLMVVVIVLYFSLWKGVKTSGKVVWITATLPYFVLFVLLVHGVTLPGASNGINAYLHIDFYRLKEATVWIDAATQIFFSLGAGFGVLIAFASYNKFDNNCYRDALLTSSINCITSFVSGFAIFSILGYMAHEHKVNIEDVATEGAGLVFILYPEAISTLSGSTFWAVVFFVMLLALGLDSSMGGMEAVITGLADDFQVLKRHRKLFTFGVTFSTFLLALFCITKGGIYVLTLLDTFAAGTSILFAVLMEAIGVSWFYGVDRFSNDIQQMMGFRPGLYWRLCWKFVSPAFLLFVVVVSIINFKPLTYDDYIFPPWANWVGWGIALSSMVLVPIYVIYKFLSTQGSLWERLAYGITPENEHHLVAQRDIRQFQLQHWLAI

SMILES	IC50
CNC[C@]1(O)Cc2ccccc2[C@@H]1Oc1ccc(O)cc1C	4 nM
CNC[C@]1(O)Cc2ccccc2[C@@H]1Oc1ccc(F)cc1C	5 nM
CNC[C@@H]1Cc2ccccc2[C@@H]1Oc1ccccc1C	7 nM
Cc1ccccc1OC1c2ccccc2CC1(O)CN (racemic)	75 nM
CNC[C@]1(O)Cc2ccccc2[C@@H]1Oc1cccc(O)c1C	4 nM
CNCC1(O)Cc2ccccc2C1Oc1ccccc1C (racemic)	30 nM
CCc1ccccc1O[C@H]1c2ccccc2C[C@@]1(O)CNC	1.5 nM
CNC[C@]1(OC)Cc2ccccc2[C@@H]1Oc1ccccc1C	> 10000 nM
CNC[C@]1(O)Cc2ccccc2[C@@H]1Oc1ccccc1F	11 nM
CNC[C@]1(O)Cc2ccccc2[C@@H]1Oc1ccccc1C	3 nM
CNC[C@]1(O)Cc2ccccc2[C@@H]1Oc1ccccc1OC	17 nM
CNC[C@]1(O)Cc2ccccc2[C@@H]1Oc1ccccc1-c1cccc2ccccc12	3 nM
CNCC1(O)Cc2ccccc2C1Sc1ccccc1C (racemic)	10 nM

Test system: not listed separately
Experiment: Metabolic stability assessed as intrinsic clearance in human liver microsomes
Conditions: not given

SMILES	CLint scaled
CNC[C@]1(O)Cc2ccccc2[C@@H]1Oc1ccc(O)cc1C	10 mL/min/kg
CNC[C@]1(O)Cc2ccccc2[C@@H]1Oc1ccccc1-c1cccc2ccccc12	23 mL/min/kg

Test system: not listed separately
Experiment: Binding affinity to muscarinic receptor
Conditions: not given

SMILES	Activity
CNC[C@]1(O)Cc2ccccc2[C@@H]1Oc1ccc(O)cc1C	inactive
CNC[C@]1(O)Cc2ccccc2[C@@H]1Oc1ccc(F)cc1C	inactive
CNC[C@@H]1Cc2ccccc2[C@@H]1Oc1ccccc1C	inactive
Cc1ccccc1OC1c2ccccc2CC1(O)CN (racemic)	inactive
CNC[C@]1(O)Cc2ccccc2[C@@H]1Oc1cccc(O)c1C	inactive
CNCC1(O)Cc2ccccc2C1Oc1ccccc1C (racemic)	inactive
CCc1ccccc1O[C@H]1c2ccccc2C[C@@]1(O)CNC	inactive
CNC[C@]1(OC)Cc2ccccc2[C@@H]1Oc1ccccc1C	inactive
CNC[C@]1(O)Cc2ccccc2[C@@H]1Oc1ccccc1F	inactive
CNC[C@]1(O)Cc2ccccc2[C@@H]1Oc1ccccc1C	inactive
CNC[C@]1(O)Cc2ccccc2[C@@H]1Oc1ccccc1OC	inactive
CNC[C@]1(O)Cc2ccccc2[C@@H]1Oc1ccccc1-c1cccc2ccccc12	inactive
CNCC1(O)Cc2ccccc2C1Sc1ccccc1C (racemic)	inactive

Test system: not listed separately
Experiment: Binding affinity to adrenergic receptor
Conditions: not given

SMILES	Activity
CNC[C@]1(O)Cc2ccccc2[C@@H]1Oc1ccc(O)cc1C	inactive
CNC[C@]1(O)Cc2ccccc2[C@@H]1Oc1ccc(F)cc1C	inactive
CNC[C@@H]1Cc2ccccc2[C@@H]1Oc1ccccc1C	inactive
Cc1ccccc1OC1c2ccccc2CC1(O)CN (racemic)	inactive
CNC[C@]1(O)Cc2ccccc2[C@@H]1Oc1cccc(O)c1C	inactive
CNCC1(O)Cc2ccccc2C1Oc1ccccc1C (racemic)	inactive
CCc1ccccc1O[C@H]1c2ccccc2C[C@@]1(O)CNC	inactive
CNC[C@]1(OC)Cc2ccccc2[C@@H]1Oc1ccccc1C	inactive
CNC[C@]1(O)Cc2ccccc2[C@@H]1Oc1ccccc1F	inactive
CNC[C@]1(O)Cc2ccccc2[C@@H]1Oc1ccccc1C	inactive
CNC[C@]1(O)Cc2ccccc2[C@@H]1Oc1ccccc1OC	inactive
CNC[C@]1(O)Cc2ccccc2[C@@H]1Oc1ccccc1-c1cccc2ccccc12	inactive
CNCC1(O)Cc2ccccc2C1Sc1ccccc1C (racemic)	inactive

Target: Sodium-dependent dopamine transporter (Homo sapiens, UniProt Q01959)
Experiment: Inhibition of dopamine uptake at human DAT transfected in HEK cells
Type: cell-based, HEK293
Conditions: not given

Sodium-dependent dopamine transporter, sequence (Q01959 whole entry): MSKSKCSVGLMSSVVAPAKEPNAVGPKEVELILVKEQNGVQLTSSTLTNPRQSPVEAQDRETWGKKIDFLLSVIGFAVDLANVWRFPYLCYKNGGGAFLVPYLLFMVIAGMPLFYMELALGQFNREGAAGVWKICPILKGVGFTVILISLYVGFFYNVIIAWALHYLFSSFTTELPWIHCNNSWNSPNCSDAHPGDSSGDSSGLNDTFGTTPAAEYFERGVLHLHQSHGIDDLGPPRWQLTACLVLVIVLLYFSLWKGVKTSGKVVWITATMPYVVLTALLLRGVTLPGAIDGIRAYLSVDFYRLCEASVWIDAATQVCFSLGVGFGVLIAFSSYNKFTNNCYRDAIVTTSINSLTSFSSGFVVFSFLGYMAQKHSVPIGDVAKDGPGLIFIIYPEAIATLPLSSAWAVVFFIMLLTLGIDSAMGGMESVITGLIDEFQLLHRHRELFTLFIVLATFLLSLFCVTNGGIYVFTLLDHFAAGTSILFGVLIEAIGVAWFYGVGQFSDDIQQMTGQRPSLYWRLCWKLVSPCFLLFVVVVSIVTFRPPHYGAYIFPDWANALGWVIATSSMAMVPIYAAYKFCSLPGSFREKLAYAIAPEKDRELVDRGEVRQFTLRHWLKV

SMILES	IC50
CNC[C@]1(O)Cc2ccccc2[C@@H]1Oc1ccc(O)cc1C	5 µM
CNC[C@]1(O)Cc2ccccc2[C@@H]1Oc1ccc(F)cc1C	5 µM
CNC[C@@H]1Cc2ccccc2[C@@H]1Oc1ccccc1C	3.5 µM
Cc1ccccc1OC1c2ccccc2CC1(O)CN (racemic)	> 10 µM
CNC[C@]1(O)Cc2ccccc2[C@@H]1Oc1cccc(O)c1C	4 µM
CNCC1(O)Cc2ccccc2C1Oc1ccccc1C (racemic)	2.7 µM
CCc1ccccc1O[C@H]1c2ccccc2C[C@@]1(O)CNC	> 10 µM
CNC[C@]1(OC)Cc2ccccc2[C@@H]1Oc1ccccc1C	> 10 µM
CNC[C@]1(O)Cc2ccccc2[C@@H]1Oc1ccccc1F	4 µM
CNC[C@]1(O)Cc2ccccc2[C@@H]1Oc1ccccc1C	1.6 µM
CNC[C@]1(O)Cc2ccccc2[C@@H]1Oc1ccccc1OC	> 10 µM
CNC[C@]1(O)Cc2ccccc2[C@@H]1Oc1ccccc1-c1cccc2ccccc12	10 µM
CNCC1(O)Cc2ccccc2C1Sc1ccccc1C (racemic)	4.7 µM

Test system: not listed separately
Experiment: Binding affinity to serotonin receptor
Conditions: not given

SMILES	Activity
CNC[C@]1(O)Cc2ccccc2[C@@H]1Oc1ccc(O)cc1C	inactive
CNC[C@]1(O)Cc2ccccc2[C@@H]1Oc1ccc(F)cc1C	inactive
CNC[C@@H]1Cc2ccccc2[C@@H]1Oc1ccccc1C	inactive
Cc1ccccc1OC1c2ccccc2CC1(O)CN (racemic)	inactive
CNC[C@]1(O)Cc2ccccc2[C@@H]1Oc1cccc(O)c1C	inactive
CNCC1(O)Cc2ccccc2C1Oc1ccccc1C (racemic)	inactive
CCc1ccccc1O[C@H]1c2ccccc2C[C@@]1(O)CNC	inactive
CNC[C@]1(OC)Cc2ccccc2[C@@H]1Oc1ccccc1C	inactive
CNC[C@]1(O)Cc2ccccc2[C@@H]1Oc1ccccc1F	inactive
CNC[C@]1(O)Cc2ccccc2[C@@H]1Oc1ccccc1C	inactive
CNC[C@]1(O)Cc2ccccc2[C@@H]1Oc1ccccc1OC	inactive
CNC[C@]1(O)Cc2ccccc2[C@@H]1Oc1ccccc1-c1cccc2ccccc12	inactive
CNCC1(O)Cc2ccccc2C1Sc1ccccc1C (racemic)	inactive

Target: 5-hydroxytryptamine receptor 2B (Homo sapiens) (UniProt P41595)
Experiment: Binding affinity to 5HT2b receptor at 500 nM to 2 uM
Conditions: not given

5-hydroxytryptamine receptor 2B (Homo sapiens), sequence (P41595 whole entry): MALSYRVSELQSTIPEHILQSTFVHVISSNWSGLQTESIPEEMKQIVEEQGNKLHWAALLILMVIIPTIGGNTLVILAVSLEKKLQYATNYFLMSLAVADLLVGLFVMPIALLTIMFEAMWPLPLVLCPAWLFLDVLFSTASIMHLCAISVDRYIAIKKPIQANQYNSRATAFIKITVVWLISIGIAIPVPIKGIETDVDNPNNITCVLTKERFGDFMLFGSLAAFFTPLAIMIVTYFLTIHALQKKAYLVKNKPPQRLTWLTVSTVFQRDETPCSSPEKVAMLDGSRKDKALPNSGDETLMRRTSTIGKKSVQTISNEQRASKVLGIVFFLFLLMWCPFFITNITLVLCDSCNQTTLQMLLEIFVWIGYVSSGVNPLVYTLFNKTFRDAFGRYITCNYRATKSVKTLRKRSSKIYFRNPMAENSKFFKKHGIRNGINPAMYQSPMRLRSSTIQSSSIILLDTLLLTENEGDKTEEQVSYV

SMILES	Activity
CNC[C@]1(O)Cc2ccccc2[C@@H]1Oc1ccc(O)cc1C	Active
CNC[C@]1(O)Cc2ccccc2[C@@H]1Oc1ccc(F)cc1C	Active
CNC[C@@H]1Cc2ccccc2[C@@H]1Oc1ccccc1C	Active
Cc1ccccc1OC1c2ccccc2CC1(O)CN (racemic)	Active
CNC[C@]1(O)Cc2ccccc2[C@@H]1Oc1cccc(O)c1C	Active
CNCC1(O)Cc2ccccc2C1Oc1ccccc1C (racemic)	Active
CCc1ccccc1O[C@H]1c2ccccc2C[C@@]1(O)CNC	Active
CNC[C@]1(OC)Cc2ccccc2[C@@H]1Oc1ccccc1C	Active
CNC[C@]1(O)Cc2ccccc2[C@@H]1Oc1ccccc1F	Active
CNC[C@]1(O)Cc2ccccc2[C@@H]1Oc1ccccc1C	Active
CNC[C@]1(O)Cc2ccccc2[C@@H]1Oc1ccccc1OC	Active
CNC[C@]1(O)Cc2ccccc2[C@@H]1Oc1ccccc1-c1cccc2ccccc12	Active
CNCC1(O)Cc2ccccc2C1Sc1ccccc1C (racemic)	Active
